In patent US20140243261A1, “Method for treating diabetes and fatty liver disese by stimulating cellular metabolism” (priority 2013, published 2014):

System: resting carbohydrate metabolism
Assay: Resting metabolism by indirect calorimetric measurement in patients after pulsed IV insulin boluses with oral carbohydrate load
Format: in vivo, human
Excerpt: A basic treatment sequence, in one preferred embodiment, is as follows. • Settle the patient and establish an intravenous (IV) flow. • Measure blood glucose. • From Table 1, arrange for the specified grams of glucose be made available to the patient. • Have the patient consume the glucose relatively quickly (time scale of minutes). Drinking an appropriate amount of GLUCOLA at a convenient rate, such as over about 30 to 90 seconds, is a useful range and route of administration. • Start IV boluses of hormone. Insulin is a useful and typical hormone for this application. • Administer hormone at the selected quantity, rate, and pattern. These details are discussed in more detail in the following sections. A typical sequence will administer the selected amount of insulin (milliunits, determined as per kilogram body weight of the patient). A useful bolus is fairly quick, such as less than five seconds. Bolus injections are repeated periodically. A useful scheme is to give boluses every six minutes, over the course of one hour. It can be useful to give boluses more rapidly. Every four minutes is a useful number. Spacing of approximately three to approximately ten minutes can be useful, and we have not tested the outer ranges of usefulness.
One useful way of assessing metabolic activity and health is to measure the volume of Carbon Dioxide Production and a […]. In example (a) below, CO2 production initially equals 0.124 L per 30 seconds of exhaled breath, with a Resting Energy Ratio of 0.66. The ratio is how one can test the amount of carbohydrate metabolized and thus producing ATP to verify the patient is metabolizing carbohydrates. Below […] is lipid metabolism, and above […] is carbohydrate metabolism.
It is useful for the metabolic assessment of the present invention to express exhaled CO2 in volume/time, such as L/30 sec. This assessment varies by patient, according to their size, lung capacity and other factors understood by one skilled in the art of pulmonary function and metabolism.
A useful tool for assessing this is from Vacuumed. The Vacuumed website (www) vacuumed (corn) includes a good discussion of the resting metabolism measurement. • VO2=oxygen uptake (ml/min) • VCO2=carbon dioxide output (ml/min) • Respiratory quotient (RQ)=VCO2/VO2
• a. The treatment form has 3 one-hour sessions with from 10 to 60 minutes rest between treatments. • b. TREATMENT GOAL: The goal of the treatment is to obtain increased ATP production from carbohydrates, by metabolizing approximately 100 g of glucose for each hour including the rest period. A desirable treatment blood glucose for oral carbohydrates is 150 mg/dl or 8.3 mmol/L of blood glucose. That equates to approximately 380 calories of carbohydrates for each 1-hour treatment session, or a total of 1,140 calories total for the 4.5 to 5.5 hours. • c. In one embodiment, patients' serum glucose level is monitored every thirty minutes to determine carbohydrate uptake and utilization. Resting metabolic measurement by an indirect calorimeter such as the Vacuumed Metabolic Measurement system provides the level of production of ATP from carbohydrates to validate the increase. • d. In order to maintain serum glucose levels sufficient to provide for a carbohydrate load for the production of ATP, the serum glucose is maintained at 150 mg/dl or 8.3 mmol/L or more by starting at 10 milliunits per kilo and increasing by 2 milliunits each 30 minutes until the desired level is achieved. This level is constantly adjusted each 30 minutes until the nominal load is obtained, and then continues for the remainder of the treatment, and is used for subsequent treatments.
a. In a preferred implementation, these patients: • i. Were checked for serum blood glucose (BG) about every 30 minutes, and for about 4.5 hours. • ii. Were given glucose averaging approximately 1,200 calories over that time. • iii. […]

insulin
increase in ATP from carbohydrates (person with Alzheimer's Disease, 83 kg, three one-hour sessions, total 33 units insulin, 14 milliunits/kg): approximately 38%
Carbon Dioxide Production after treatment (person with Alzheimer's Disease, 83 kg, three one-hour sessions, total 33 units insulin, 14 milliunits/kg, baseline 0.151): 0.208 L per 30 seconds
Resting Energy Ratio after treatment (person with Alzheimer's Disease, 83 kg, three one-hour sessions, total 33 units insulin, 14 milliunits/kg, baseline 0.79): 0.99
increase in ATP from carbohydrates (person, 50.5 kg, three one-hour sessions, total 42 units insulin, 28 milliunits/kg): approximately 280%
Carbon Dioxide Production after treatment (person, 50.5 kg, three one-hour sessions, total 42 units insulin, 28 milliunits/kg, baseline 0.121): 0.342 L per 30 seconds
Resting Energy Ratio after treatment (person, 50.5 kg, three one-hour sessions, total 42 units insulin, 28 milliunits/kg, baseline 0.67): 0.98
increase in ATP from carbohydrates (person, 70 kg, three one-hour sessions, total 45 units insulin, 22 milliunits/kg): approximately 320%
Carbon Dioxide Production after treatment (person, 70 kg, three one-hour sessions, total 45 units insulin, 22 milliunits/kg, baseline 0.091): 0.293 L per 30 seconds
Resting Energy Ratio after treatment (person, 70 kg, three one-hour sessions, total 45 units insulin, 22 milliunits/kg, baseline 0.63): 0.98
Carbon Dioxide Production after treatment (person, 85 kg, three one-hour sessions plus rest cycles, total 63 units insulin, 25 milliunits/kg, baseline 0.124): 0.255 L per 30 seconds
increase in ATP from carbohydrates (person, 85 kg, three one-hour sessions, total 63 units insulin, 25 milliunits/kg): approximately 205%
Resting Energy Ratio after treatment (person, 85 kg, three one-hour sessions, total 63 units insulin, 25 milliunits/kg, baseline 0.66): 0.96
